In patent publication US7662819B2, “Pteridinone derivatives for use as stearoyl CoA desaturase inhibitors” (Gilead Palo Alto, Inc., priority 2007, dated 2010):

Biological target: T1, stearoyl-CoA desaturase (SCD) (Rattus norvegicus, UniProt P07308)
T1 construct: from tissue; host or cells: liver microsomes of male Sprague Dawley rats, with SCD induced by a carbohydrate-rich diet after fasting/feeding cycles
T1 sequence (P07308 1-358): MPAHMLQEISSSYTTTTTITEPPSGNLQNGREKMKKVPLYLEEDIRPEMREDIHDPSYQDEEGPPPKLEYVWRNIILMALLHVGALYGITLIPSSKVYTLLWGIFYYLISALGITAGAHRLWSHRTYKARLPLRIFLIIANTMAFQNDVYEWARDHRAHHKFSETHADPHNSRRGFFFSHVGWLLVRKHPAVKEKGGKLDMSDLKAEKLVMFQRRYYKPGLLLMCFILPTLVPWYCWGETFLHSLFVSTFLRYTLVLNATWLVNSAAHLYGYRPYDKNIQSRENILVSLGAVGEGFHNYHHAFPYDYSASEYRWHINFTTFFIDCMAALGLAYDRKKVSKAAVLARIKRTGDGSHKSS
Experiment: SCD assay in rat liver microsomes ([3H]stearoyl CoA desaturation, adapted from Talamo and Bloch)
Type: biochemical
Conditions: rat liver microsomes 0.2 mg/ml assay final, 30 min preincubation, 45 min reaction, room temperature
Description: The identification of compounds of the invention as SCD inhibitors was readily accomplished using the SCD enzyme and microsomal assay procedure described in Talamo and Bloch (1969) Analytical Biochemistry 29:300-304.
The rat liver microsomes were collected according to the procedure described in Ozols (1990) Methods Enzm, 182:225.
Male Spraque Dawley Rats were placed on regimented fasting protocol for one week to stimulate SCD enzymatic activity. 48-hour periods were alternated between feeding and fasting to induce and down-regulate SCD activity with SCD activity being induced via carbohydrate rich diet prior to liver perfusion and collection.
The rats were anesthetized with Isoflurane inhalation anesthetic, the liver perfused with cold phosphate buffered saline (PBS), weighed, and chilled in cold homogenization buffer (250 mM sucrose, 10 mM Tris, 1 mM EDTA, pH 7.6.
The livers were finely minced and placed in homogenization tube. 40 mL of homogenization buffer was added to the homogenization tube and the liver homogenized and centrifuged in a pre-chilled […] for 10 min at 4° C.
Following centrifugation, the supernatant was collected and the pellet removed and discarded. The supernatant was centrifuge at 10,000 G for 35 minutes. Following centrifugation, the supernatant was collect and the pellet discarded. The supernatant was then centrifuged in a pre-chilled 45-Ti rotor at 130,000 G (41,000 RPM) for 90 minutes at 4° C.
The supernatant was then aspirated off and the collected microsomal pellet washed in 25 mL of Glycerol PBS (1×PBS 7.4, 20% Glycerol) and resuspended in 4-5 volumes of Glycerol PBS.
The protein concentration of the microsomal preparation was determined by BCA assay (Pierce) and the microsomes were aliquoted and stored at −80° C.
Biobeads were ground to a smaller size in a mortar and pestle and resuspended in 3.6% TCA. The beads were then filtered through […] mesh.
SCD was determined in the desaturase assay buffer. This assay buffer contained 0.1 M Tris buffer, pH 7.2, 2 mM NADH, 4.8 mM ATP, 0.5 mM CoA, 4.8 mM MgCl2, and 0.1% BSA.
The Procedure for the SCD Assay (Adapted from Talamo and Bloch (1969) Analytical Biochemistry 29:300-304)
1 μl of each compound of Formula I was added to an assay plate by a low volume (0.5-10 μL) multichannel pipette. A DMSO control was also prepared. The microsomes were quickly thawed and added to assay buffer so that a concentration of 0.4 mg/ml was achieved (0.2 mg/ml assay final). 50 μl of the microsome suspension in assay buffer was then added into each well in the compound assay plate, the plate was covered, and the microsomes preincubated with the compounds for 30 minutes on the orbital shaker, 50-75 rpm, at room temperature.
After preincubation, the reaction was initiated by the addition of 50 μl of substrate solution (20 μM Stearoyl CoA, [3H]Stearoyl CoA, 74 nCi) to the preincubated microsomes/compound suspensions in MilliQ (Millipore) H2O. The reaction mixtures were then incubated for 45 minutes on the orbital shaker at 50-75 rpm at room temperature.
The reaction was terminated by the addition of 10 μl of 21% […] (TCA) to the reaction mixture followed incubation on the orbital shaker for 30 minutes at 50-75 rpm at room temperature followed by centrifugation for 5 minutes at 3700 rpm.
50 μl of a 6% Bio-Bead suspension in H2O was added to the reaction mixture and the assay plate was sealed. The Bio-Bead mixture was incubated on the orbital shaker for 1 hour, 100-150 rpm at room temperature, and then the mixture was centrifuged at 2000 g for 5 minutes to pellet the Bio-Beads.
25 μl of the supernatant was harvested from each well and transferred to a detection plate. 100 μl of OptiPhase SuperMix scinitillation cocktail (containing sufficient NaOH to neutralize the TCA) was added and the solutions mixed by vigorous shaking (300-400 rpm) for 5 minutes at room temperature. […]

IC50 [nM] | Structure (SMILES)
2720 | O=C(NCCn1c(=O)cnc2cnc(NCc3ccc(Cl)c(Cl)c3)nc21)c1ccccc1 [Compound 34, N-[2-(2-{[(3,4-dichlorophenyl)methyl]amino}-7-oxo(8-hydropteridin-8-yl))ethyl]benzamide]
430 | COc1ccc(-c2nc3cnc(NCc4ccc(Cl)c(Cl)c4)nc3n(CCNC(=O)c3ccc(F)cc3)c2=O)cc1 [Compound 29, N-[2-(2-{[(3,4-dichlorophenyl)methyl]amino}-6-(4-methoxyphenyl)-7-oxo(8-hydropteridin-8-yl))ethyl](4-fluorophenyl)carboxamide]
340 | CC(=O)NCCn1c(=O)cnc2cnc(NCc3ccc(Cl)c(Cl)c3)nc21 [Compound 17, N-[2-(2-{[(3,4-dichlorophenyl)methyl]amino}-7-oxo-8-hydropteridin-8-yl)ethyl]acetamide]
4340 | CC(=O)NCCn1c(=O)c(-c2ncccn2)nc2cnc(NCc3ccc(Cl)c(Cl)c3)nc21 [Compound 21, N-[2-(2-{[(3,4-dichlorophenyl)methyl]amino}-7-oxo-6-pyrimidin-2-yl-8-hydropteridin-8-yl)ethyl]acetamide]
2800 | CCC(=O)NCCn1c(=O)c(-c2ccc(OC)cc2)nc2cnc(NCc3ccc(Cl)c(Cl)c3)nc21 [Compound 6, N-[2-(2-{[(3,4-dichlorophenyl)methyl]amino}-6-(4-methoxyphenyl)-7-oxo-8-hydropteridin-8-yl)ethyl]propanamide]
22000 | CC(=O)NCCn1c(=O)c(C(F)(F)F)nc2cnc(NCc3ccc(F)cc3)nc21 [Compound 20, N-[2-(2-{[(4-fluorophenyl)methyl]amino}-7-oxo-6-(trifluoromethyl)-8-hydropteridin-8-yl)ethyl]acetamide]
470 | C/C=C/C(=O)NCCn1c(=O)c(-c2ccc(OC)cc2)nc2cnc(NCc3ccc(Cl)c(Cl)c3)nc21 [Compound 40, (2E)—N-[2-(2-{[(3,4-dichlorophenyl)methyl]amino}-6-(4-methoxyphenyl)-7-oxo(8-hydropteridin-8-yl))ethyl]but-2-enamide]
3270 | COc1ccc(-c2nc3cnc(NCc4ccc(Cl)c(Cl)c4)nc3n(CCNC(=O)c3cccc(C)c3)c2=O)cc1 [Compound 30, N-[2-(2-{[(3,4-dichlorophenyl)methyl]amino}-6-(4-methoxyphenyl)-7-oxo(8-hydropteridin-8-yl))ethyl](3-methylphenyl)carboxamide]
7800 | CC(=O)NCCn1c(=O)c(-c2ccc(Cl)cc2)nc2cnc(NCc3cccc(Cl)c3)nc21 [Compound 26, N-[2-(6-(4-chlorophenyl)-2-{[(3-chlorophenyl)methyl]amino}-7-oxo-8-hydropteridin-8-yl)ethyl]acetamide]
1300 | COc1ccc(-c2nc3cnc(NCc4cccc(Cl)c4)nc3n(CCNC(C)=O)c2=O)cc1 [Compound 24, N-[2-(2-{[(3-chlorophenyl)methyl]amino}-6-(4-methoxyphenyl)-7-oxo-8-hydropteridin-8-yl)ethyl]acetamide]
260 | COc1ccc(-c2nc3cnc(NCc4ccc(Cl)c(Cl)c4)nc3n(CCNC=O)c2=O)cc1 [Compound 41, N-[2-(2-{[(3,4-dichlorophenyl)methyl]amino}-6-(4-methoxyphenyl)-7-oxo-8-hydropteridin-8-yl)ethyl]carboxamide]
160 | COc1ccc(-c2nc3cnc(NCc4ccc(Cl)c(Cl)c4)nc3n(CCNC(C)=O)c2=O)cc1 [Compound 1, N-[2-(2-{[(3,4-dichlorophenyl)methyl]amino}-6-(4-methoxyphenyl)-7-oxo-8-hydropteridin-8-yl)ethyl]acetamide]
13000 | COc1ccc(-c2nc3cnc(NCc4ccc(F)c(F)c4)nc3n(CCNC(C)=O)c2=O)cc1 [Compound 18, N-[2-(2-{[(3,4-difluorophenyl)methyl]amino}-6-(4-methoxyphenyl)-7-oxo-8-hydropteridin-8-yl)ethyl]acetamide]
1800 | CC(=O)NCCn1c(=O)c(-c2ccc(Cl)cc2)nc2cnc(NCc3ccc(F)cc3)nc21 [Compound 33, N-[2-(6-(4-chlorophenyl)-2-{[(4-fluorophenyl)methyl]amino}-7-oxo-8-hydropteridin-8-yl)ethyl]acetamide]
5010 | O=C(NCCn1c(=O)c(-c2cccnc2)nc2cnc(NCc3ccc(Cl)c(Cl)c3)nc21)c1ccsc1 [Compound 37, N-[2-(2-{[(3,4-dichlorophenyl)methyl]amino}-7-oxo-6-(3-pyridyl)(8-hydropteridin-8-yl))ethyl]-3-thienylcarboxamide]
1300 | COc1ccc(-c2nc3cnc(NCc4ccc(F)cc4)nc3n(CCNC(C)=O)c2=O)cc1 [Compound 10, N-[2-(2-{[(4-fluorophenyl)methyl]amino}-6-(4-methoxyphenyl)-7-oxo-8-hydropteridin-8-yl)ethyl]acetamide]
560 | COc1ccc(-c2nc3cnc(NCc4ccc(Cl)c(Cl)c4)nc3n(CCNC(=O)c3ccccc3)c2=O)cc1 [Compound 7, N-[2-(2-{[(3,4-dichlorophenyl)methyl]amino}-6-(4-methoxyphenyl)-7-oxo(8-hydropteridin-8-yl))ethyl]benzamide]
2800 | COc1ccc(-c2nc3cnc(NCc4ccc(Cl)c(Cl)c4)nc3n(CCNC(=O)c3ccncc3)c2=O)cc1 [Compound 39, N-[2-(2-{[(3,4-dichlorophenyl)methyl]amino}-6-(4-methoxyphenyl)-7-oxo(8-hydropteridin-8-yl))ethyl]-4-pyridylcarboxamide]
